Patent US9840498B2, “Substituted quinazolin-4-one derivatives” (NOVARTIS AG, priority 2013, dated 2017)

Legend:
Conditions in all cases: enzymatic assay
PI3K alpha = PI3K alpha (Homo sapiens (Human), UniProt P42336); experiment: Biochemical assay for PI3Kalpha (Kinase-Glo format)
Method: 1.1 Generation of Gene Constructs, Protein Expression and Purification
For the enzymatic assays, the preparation of PI3K gene constructs, protein expression and purification for HTS are described in WO2012/004299.
1.2 Biochemical Assays for PI3Kalpha, PI3Kbeta (Kinase-Glo Format)
The kinase reaction is performed in a final volume of 50 μl per well of a half area COSTAR, 96 well plate. The final concentrations of ATP and phosphatidyl inositol in the assay are 5 μM and 6 μg/mL, respectively. The reaction is started by the addition of PI3 kinase, e.g. PI3 kinase α.
The components of the assay are added per well as follows: • 10 μl test compound in 5% DMSO per well in […]. • Total activity is determined by addition 10 μl of 5% vol/vol DMSO in the first 4 wells of column 1 and the last 4 wells of column 12. • The background is determined by addition of 10 μM control compound to the last 4 wells of column 1 and the first 4 wells of column 12. • 2 mL ‘Assay mix’ are prepared per plate: • 1.912 mL of HEPES assay buffer • 8.33 μl of 3 mM stock of ATP giving a final concentration of 5 μM per well • 1 μl of [^33P]ATP on the activity date giving 0.05 μCi per well • 30 μl of 1 mg/mL PI stock giving a final concentration of 6 μg/mL per well • 5 μl of 1 M stock MgCl2 giving a final concentration of 1 mM per well • 20 μl of the assay mix are added per well. • 2 mL ‘Enzyme mix’ are prepared per plate (x* μl PI3 kinase p110α in 2 mL of kinase buffer). The ‘Enzyme mix’ is kept on ice during addition to the assay plates. * The volume of enzyme is dependent on the enzymatic activity of the batch in use. • 20 μl ‘Enzyme mix’ are added/well to start the reaction. • The plate is then incubated at room temperature for 90 minutes. • The reaction is terminated by the addition of 50 μl WGA-SPA bead (wheat germ agglutinin-coated Scintillation Proximity Assay beads) suspension per well. • The assay plate is sealed using TopSeal-S (heat seal for polystyrene microplates, PerkinElmer LAS [Deutschland] GmbH, Rodgau, Germany) and incubated at room temperature for at least 60 minutes. • The assay plate is then centrifuged at 1500 rpm for 2 minutes using the Jouan bench top centrifuge (Jouan Inc., Nantes, France). • The assay plate is counted using a Packard TopCount, each well being counted for 20 seconds.
In a more preferred assay, the kinase reaction is performed in a final volume of 10 μl per well of a low volume non-binding CORNING, 384 well black plate (Cat. No. #3676). The final concentrations of ATP and phosphatidyl inositol (PI) in the assay are 1 μM and 10 μg/mL, respectively. The reaction is started by the addition of ATP.
The components of the assay are added per well as follows: […]

PI3K gamma = PI3K gamma (Homo sapiens (Human), UniProt P48736); experiment: Biochemical assay for PI3Kgamma (Adapta TR-FRET format)
PI3K gamma, sequence (P48736 whole entry): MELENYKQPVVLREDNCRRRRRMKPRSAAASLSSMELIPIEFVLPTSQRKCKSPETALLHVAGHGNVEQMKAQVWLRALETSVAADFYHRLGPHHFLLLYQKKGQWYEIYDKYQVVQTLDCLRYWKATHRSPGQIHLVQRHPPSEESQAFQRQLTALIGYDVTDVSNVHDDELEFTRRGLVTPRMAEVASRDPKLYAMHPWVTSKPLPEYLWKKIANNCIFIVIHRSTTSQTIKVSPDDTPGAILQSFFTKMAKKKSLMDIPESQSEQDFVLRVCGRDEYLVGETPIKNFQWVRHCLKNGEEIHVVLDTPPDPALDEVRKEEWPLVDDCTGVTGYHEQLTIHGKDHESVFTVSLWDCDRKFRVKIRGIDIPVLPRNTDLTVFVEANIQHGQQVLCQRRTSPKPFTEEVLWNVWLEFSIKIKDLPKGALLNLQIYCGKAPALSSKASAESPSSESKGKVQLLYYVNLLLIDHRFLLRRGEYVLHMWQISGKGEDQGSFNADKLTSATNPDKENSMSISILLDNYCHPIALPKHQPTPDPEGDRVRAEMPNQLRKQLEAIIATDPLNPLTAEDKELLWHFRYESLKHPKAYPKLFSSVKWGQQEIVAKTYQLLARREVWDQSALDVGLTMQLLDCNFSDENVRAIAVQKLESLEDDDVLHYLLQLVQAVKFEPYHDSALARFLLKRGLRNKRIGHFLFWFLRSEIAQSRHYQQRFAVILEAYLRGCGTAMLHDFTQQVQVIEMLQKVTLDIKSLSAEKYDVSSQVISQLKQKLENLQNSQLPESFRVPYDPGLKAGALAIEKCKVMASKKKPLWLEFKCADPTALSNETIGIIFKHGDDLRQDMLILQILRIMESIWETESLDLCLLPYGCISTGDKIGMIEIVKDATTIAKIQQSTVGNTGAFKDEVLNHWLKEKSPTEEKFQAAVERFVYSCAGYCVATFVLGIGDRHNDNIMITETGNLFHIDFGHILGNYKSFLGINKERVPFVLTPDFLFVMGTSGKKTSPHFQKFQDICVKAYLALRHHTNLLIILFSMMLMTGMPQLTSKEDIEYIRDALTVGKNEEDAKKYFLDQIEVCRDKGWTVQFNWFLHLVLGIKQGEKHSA
From the text: (§1) For the enzymatic assays, the preparation of PI3K gene constructs, protein expression and purification for HTS are described in WO2012/004299. […] The TR-FRET Adapta™ Universal Kinase Assay Kit was purchased from Invitrogen Corporation (Carlsbad/CA, USA) (Cat. No. PV5099). The kit contains the following reagents: Adapta Eu-anti-ADP Antibody (Europium labeled anti-ADP antibody in HEPES buffered saline, Cat. No. PV5097), Alexa Fluor® 647-labeled ADP tracer (Alexa Fluor® 647-labeled ADP tracer in HEPES buffered saline, Cat. No. PV5098), proprietary TR-FRET dilution buffer pH 7.5 (Cat. No. PV3574). PIK3CD substrate Phosphatidylinositol was obtained from Invitrogen (vesicules consisting of 2 mM PI in 50 mM HEPES pH7.5; Cat. No. PV5371). PIK3CG substrate Phosphatidylinositol-4,5-bisphosphate (PIP(4,5)2 was obtained from Invitrogen (PIP2:PS large unilamellar vesicules consisting of 1 mM PI P2: 19 mM PS in 50 mM HEPES pH7.5, 3 mM MgCl2, 1 mM EGTA; Cat. No. PV5100). Time-Resolved Fluorescence Resonance Energy Transfer (TR-FRET) is a technology based on energy transfer between two adjacent dyes, from an excited electron in one dye (the donor) to an electron of an adjacent dye (the acceptor) through resonance, then released as a photon. This energy transfer is detected by an increase in the fluorescence emission of the acceptor, and a decrease in the fluorescence emission of the donor. TR-FRET assays for protein kinases use a long-lifetime lanthanide Terbium or Europium chelates as the donor species which overcome interference from compound autofluorescence or light scatter from precipitated compounds, by introducing a delay after excitation by a flashlamp excitation source. Results are often expressed as a ratio of the intensities of the acceptor and donor fluorophores. The ratiometric nature of such a value corrects for differences in assay volumes between wells, as well as corrects for quenching effects due to colored compounds. The Adapta™ assay can be divided into two phases: a kinase reaction phase and an ADP detection phase. In the kinase reaction phase, all kinase reaction components are added to the well and the reaction is allowed to incubate for a set period of time specific for each kinase. After the reaction, a detection solution of Eu-labeled anti-ADP antibody, Alexa Fluor® 647-labeled ADP tracer, and EDTA (to stop the kinase reaction) are added to the assay well. ADP formed by the kinase reaction will displace the Alexa Fluor® 647-labeled ADP tracer from the antibody, resulting in a decrease in TR-FRET signal. In the presence of an inhibitor, the amount of ADP formed by the kinase reaction is reduced, and the resulting intact antibody-tracer interaction maintains a high TR-FRET signal. In the Adapta™ assay, the donor (Europium-anti-ADP antibody) is excited at 340 nm and will transfer its energy to the acceptor (Alexa Fluor® 647-labeled ADP tracer). The emission from the Alexa Fluor® 647 can be monitored with a filter centered at 665 nm because it is located between the emission peaks of the donor, which is measured at 615/620 nm. 50 nL of compound dilutions were dispensed onto white 384-well small volume polystyrene plate as described in section 2.2. Then 5 μL of PI3Kgamma and PI3Kdelta and lipid substrate (PI or PIP2:PS) followed by 5 μL of ATP (final assay volume 10 μL) are incubated at RT. […] Reactions were stopped with 5 μL of a mixture of EDTA containing the Eu-labeled anti-ADP antibody and the Alexa Fluor® 647-labeled ADP tracer in TR-FRET dilution buffer (proprietary to IVG). Plates are read 15 to 60 mins later in a Synergy2 reader using an integration time of 0.4 seconds and a delay of 0.05 seconds. […] The control for the 0% inhibition was given by the solvent vehicle of the compounds (90% DMSO in H2O). Data are analyzed using Excel fit software or Graphpad Prism. EC50 values were derived by fitting a sigmoidal dose-response curve to a plot of assay readout over inhibitor concentration. […]

PI3K delta = PI3K delta (Homo sapiens (Human), UniProt O00329); experiment: Biochemical assay for PI3Kdelta (Adapta TR-FRET format)
PI3K delta, sequence (O00329 2-1044): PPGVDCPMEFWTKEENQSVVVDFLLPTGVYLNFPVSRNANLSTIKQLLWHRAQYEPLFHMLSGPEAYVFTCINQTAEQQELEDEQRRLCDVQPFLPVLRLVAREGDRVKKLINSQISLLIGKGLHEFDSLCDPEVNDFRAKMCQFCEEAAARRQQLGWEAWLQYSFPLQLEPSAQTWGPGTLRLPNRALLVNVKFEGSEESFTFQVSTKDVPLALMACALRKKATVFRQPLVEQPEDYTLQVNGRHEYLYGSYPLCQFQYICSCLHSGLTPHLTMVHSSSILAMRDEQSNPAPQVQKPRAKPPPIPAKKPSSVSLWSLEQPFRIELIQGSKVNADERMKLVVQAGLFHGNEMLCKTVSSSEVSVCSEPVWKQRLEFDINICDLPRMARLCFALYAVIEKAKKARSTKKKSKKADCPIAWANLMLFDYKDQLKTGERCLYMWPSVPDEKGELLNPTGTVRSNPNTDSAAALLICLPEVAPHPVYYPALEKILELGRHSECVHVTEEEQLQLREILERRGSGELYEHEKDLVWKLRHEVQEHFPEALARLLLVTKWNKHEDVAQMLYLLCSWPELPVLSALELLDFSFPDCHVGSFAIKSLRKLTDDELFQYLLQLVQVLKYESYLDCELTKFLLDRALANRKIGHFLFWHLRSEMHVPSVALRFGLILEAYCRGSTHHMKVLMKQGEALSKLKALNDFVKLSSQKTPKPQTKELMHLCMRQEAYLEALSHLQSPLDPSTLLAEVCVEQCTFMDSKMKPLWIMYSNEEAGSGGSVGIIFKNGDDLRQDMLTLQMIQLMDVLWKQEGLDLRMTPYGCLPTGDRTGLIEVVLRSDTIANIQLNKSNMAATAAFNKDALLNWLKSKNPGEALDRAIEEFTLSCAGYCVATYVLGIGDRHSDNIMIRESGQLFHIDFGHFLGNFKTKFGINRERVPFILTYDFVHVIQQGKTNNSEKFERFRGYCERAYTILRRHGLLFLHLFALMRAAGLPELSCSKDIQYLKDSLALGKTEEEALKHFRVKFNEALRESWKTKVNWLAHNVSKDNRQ
PI3K delta, sequence (P27986 461-568 partner): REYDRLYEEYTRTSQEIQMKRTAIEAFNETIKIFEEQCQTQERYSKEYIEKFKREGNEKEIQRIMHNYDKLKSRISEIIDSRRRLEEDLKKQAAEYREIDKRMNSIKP
From the text: as §1

PI3K alpha, sequence (P42336 21-1068): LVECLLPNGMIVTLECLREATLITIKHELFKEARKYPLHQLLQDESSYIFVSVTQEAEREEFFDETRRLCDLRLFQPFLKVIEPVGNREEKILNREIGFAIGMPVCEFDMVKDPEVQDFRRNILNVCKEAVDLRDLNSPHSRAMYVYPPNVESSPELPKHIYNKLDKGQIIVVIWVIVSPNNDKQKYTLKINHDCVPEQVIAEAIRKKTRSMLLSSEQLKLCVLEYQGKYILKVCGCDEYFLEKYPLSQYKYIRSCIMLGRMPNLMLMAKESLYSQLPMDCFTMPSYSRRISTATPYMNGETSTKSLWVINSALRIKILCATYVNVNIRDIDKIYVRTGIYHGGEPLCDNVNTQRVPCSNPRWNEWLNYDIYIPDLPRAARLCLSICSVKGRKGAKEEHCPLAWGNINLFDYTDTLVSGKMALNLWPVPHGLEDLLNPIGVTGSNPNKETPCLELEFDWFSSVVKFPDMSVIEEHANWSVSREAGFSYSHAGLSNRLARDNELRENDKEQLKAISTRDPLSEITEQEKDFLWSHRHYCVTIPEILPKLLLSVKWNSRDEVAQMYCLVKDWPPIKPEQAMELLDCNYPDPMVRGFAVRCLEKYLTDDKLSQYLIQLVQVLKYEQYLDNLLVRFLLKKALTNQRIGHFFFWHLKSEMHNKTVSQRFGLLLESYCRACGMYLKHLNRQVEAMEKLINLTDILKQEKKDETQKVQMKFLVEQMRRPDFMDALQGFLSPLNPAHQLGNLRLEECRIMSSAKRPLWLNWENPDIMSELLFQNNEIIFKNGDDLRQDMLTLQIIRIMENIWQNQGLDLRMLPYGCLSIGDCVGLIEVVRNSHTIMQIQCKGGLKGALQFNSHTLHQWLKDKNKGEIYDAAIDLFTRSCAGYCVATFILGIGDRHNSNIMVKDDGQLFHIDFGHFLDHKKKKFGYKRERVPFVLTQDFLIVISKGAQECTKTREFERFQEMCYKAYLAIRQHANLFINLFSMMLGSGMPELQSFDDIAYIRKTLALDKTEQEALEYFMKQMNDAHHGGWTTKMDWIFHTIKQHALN
PI3K alpha, sequence (P27986 461-568 partner): as the sequence (P27986 461-568 partner) above

Compound | IC50 (PI3K alpha) [nM] | IC50 (PI3K gamma) [nM] | IC50 (PI3K delta) [nM]
Cc1nc(N)nc(N2C[C@@H](O)C[C@H]2c2nc3ccc(F)c(-c4cnn(C)c4)c3c(=O)n2-c2ccccc2)c1C#N [Example 1, 2-Amino-4-((2S,4S)-2-(6-fluoro-5-(1-methyl-1H-pyrazol-4-yl)-4-oxo-3-phenyl-3,4-dihydroquinazolin-2-yl)-4-hydroxypyrrolidin-1-yl)-6-methylpyrimidine-5-carbonitrile] | 74 | 28 | 8
Cn1cc(-c2cccc3nc([C@@H]4CCCN4c4ncnc(N)c4C#N)n(-c4ccccc4)c(=O)c23)cn1 [Example 2, (S)-4-Amino-6-(2-(5-(1-methyl-1H-pyrazol-4-yl)-4-oxo-3-phenyl-3,4-dihydroquinazolin-2-yl)pyrrolidin-1-yl)pyrimidine-5-carbonitrile] | 1300 | 150 | 
Cn1cc(-c2c(F)ccc3nc([C@@H]4CCCN4c4ncnc(N)c4C#N)n(-c4ccccc4)c(=O)c23)cn1 [Example 5, (S)-4-Amino-6-(2-(6-fluoro-5-(1-methyl-1H-pyrazol-4-yl)-4-oxo-3-phenyl-3,4-dihydroquinazolin-2-yl)pyrrolidin-1-yl)pyrimidine-5-carbonitrile] | 230 | 85 | 4
Cn1cc(-c2c(F)ccc3nc([C@@H]4C[C@H](O)CN4c4ncnc(N)c4C#N)n(-c4ccccc4)c(=O)c23)cn1 [Example 8, 4-Amino-6-((2S,4S)-2-(6-fluoro-5-(1-methyl-1H-pyrazol-4-yl)-4-oxo-3-phenyl-3,4-dihydroquinazolin-2-yl)-4-hydroxypyrrolidin-1-yl) pyrimidine-5-carbonitrile] | 1100 | 750 | 14
COc1ncc(-c2c(F)ccc3nc([C@@H]4C[C@H](O)CN4c4nc(N)nc(C)c4C#N)n(-c4ccccc4)c(=O)c23)s1 [Example 9, 2-Amino-4-((2S,4S)-2-(6-fluoro-5-(2-methoxythiazol-5-yl)-4-oxo-3-phenyl-3,4-dihydroquinazolin-2-yl)-4-hydroxypyrrolidin-1-yl)-6-methylpyrimidine-5-carbonitrile] | 53 | 18 | 8
CO[C@H]1C[C@@H](c2nc3cccc(-c4cnn(C)c4)c3c(=O)n2-c2ccccc2)N(c2nc(N)nc3[nH]cnc23)C1 [Example 11, 2-((2S,4S)-1-(2-Amino-9H-purin-6-yl)-4-methoxypyrrolidin-2-yl)-5-(1-methyl-1H-pyrazol-4-yl)-3-phenylquinazolin-4(3H)-one] | 2300 | 230 | 45

Now from value to molecule:

IC50 (PI3K alpha) [nM] | IC50 (PI3K gamma) [nM] | IC50 (PI3K delta) [nM] | Compound
1400 | 1200 | 8 | COc1ncc(-c2cccc3nc([C@@H]4CCCN4c4ncnc(N)c4C#N)n(-c4ccccc4)c(=O)c23)cn1 [Example 3, (S)-4-Amino-6-(2-(5-(2-methoxypyrimidin-5-yl)-4-oxo-3-phenyl-3,4-dihydroquinazolin-2-yl)pyrrolidin-1-yl)pyrimidine-5-carbonitrile]
320 | 82 | 6 | COc1ncc(-c2cccc3nc([C@@H]4CCCN4c4nc(N)nc(C)c4C#N)n(-c4ccccc4)c(=O)c23)cn1 [Example 4, (S)-2-Amino-4-(2-(5-(2-methoxypyrimidin-5-yl)-4-oxo-3-phenyl-3,4-dihydroquinazolin-2-yl)pyrrolidin-1-yl)-6-methylpyrimidine-5-carbonitrile]
130 | 56 | 9 | Cc1nc(N)nc(N2CCC[C@H]2c2nc3ccc(F)c(-c4cnn(C)c4)c3c(=O)n2-c2ccccc2)c1C#N [Example 6, (S)-2-Amino-4-(2-(6-fluoro-5-(1-methyl-1H-pyrazol-4-yl)-4-oxo-3-phenyl-3,4-dihydroquinazolin-2-yl)pyrrolidin-1-yl)-6-methylpyrimidine-5-carbonitrile]
210 | 110 | 6 | COc1ncc(-c2c(F)ccc3nc([C@@H]4C[C@H](O)CN4c4nc(N)nc(C)c4C#N)n(-c4ccccc4)c(=O)c23)cn1 [Example 7, 2-Amino-4-((2S,4S)-2-(6-fluoro-5-(2-methoxypyrimidin-5-yl)-4-oxo-3-phenyl-3,4-dihydroquinazolin-2-yl)-4-hydroxypyrrolidin-1-yl)-6-methylpyrimidine-5-carbonitrile]
1300 | 38 | 6 | CO[C@H]1C[C@@H](c2nc3cccc(-c4cnn(C)c4)c3c(=O)n2-c2ccccc2)N(c2nc(N)nc(C)c2C#N)C1 [Example 10, 2-Amino-4-((2S,4S)-4-methoxy-2-(5-(1-methyl-1H-pyrazol-4-yl)-4-oxo-3-phenyl-3,4-dihydroquinazolin-2-yl)pyrrolidin-1-yl)-6-methylpyrimidine-5-carbonitrile]
1200 | 210 | 5 | COc1ncc(-c2cccc3nc([C@@H]4C[C@H](OC)CN4c4nc(N)nc(C)c4C#N)n(-c4ccccc4)c(=O)c23)cn1 [Example 12, 2-Amino-4-((2S,4S)-4-methoxy-2-(5-(2-methoxypyrimidin-5-yl)-4-oxo-3-phenyl-3,4-dihydroquinazolin-2-yl)pyrrolidin-1-yl)-6-methylpyrimidine-5-carbonitrile]
